Assays:
obese female Zucker rats = experiment: Oral daily treatment of obese female Zucker rats for fourteen days; assay type: in vivo, rat; details: 14 days; for Glucose, Percent Change from Pre-treatment: blood, 6-hour fast; for Glucose, Percent Change from Pre-treatment / BHA, Percent Change from Pre-treatment / HDL-C, Percent Change from Pre-treatment / Insulin, Percent Change from Pre-treatment / NEFA, Percent Change from Pre-treatment / Non HDL-C, Percent Change from Pre-treatment / TC, Percent Change from Pre-treatment / TG, Percent Change from Pre-treatment: oral daily; for % wt. gain / HDL-C/non HDL-C: oral gavage daily; for BHA, Percent Change from Pre-treatment / HDL-C, Percent Change from Pre-treatment / Insulin, Percent Change from Pre-treatment / NEFA, Percent Change from Pre-treatment / Non HDL-C, Percent Change from Pre-treatment / TC, Percent Change from Pre-treatment / TG, Percent Change from Pre-treatment: serum
Procedure: In a number of different experiments, compounds described in Table 1 were administered daily to 11-13 week old chow fed obese female Zucker rats for 14 days in the morning by oral gavage in 20% ethanol/80% polyethylene glycol-200 (dosing vehicle)(“EP”). The dosing vehicle was administered to control animals in parallel experiments.
Body weight was determined daily prior to dosing. Animals were allowed free access to rodent chow and water throughout the study. Blood glucose was determined after a 6-hour fast in the afternoon without anesthesia from a tail vein. Serum was also prepared from a blood sample subsequently obtained from the orbital venous plexus (with O2/CO2 anesthesia) prior to and after one week treatment and used lipid and insulin determinations. At two weeks, blood glucose was again determined after a 6-hour fast without anesthesia from a tail vein. Soon thereafter, animals were sacrificed by CO2 inhalation in the afternoon and cardiac blood serum was collected and assessed for various lipids and insulin.

primary rat hepatocytes = experiment: Synthesis of total lipids (14C-acetate labeling) in primary rat hepatocytes; assay type: cell-based; details: Hepatocyte, 14C-acetate labeling 4 hr at 37° C., 1-300 μM, read-out: IC50, total lipid synthesis
Procedure: A male Sprague-Dawley rate was anesthetized by administration of sodium pentobarbitol by intraperitoneal at 80 mg/kg. In situ perfusion of the liver was performed as follows. The abdomen of the animal was opened, the portal vein canulated, and the liver perfused with WOSH solution (149 mM NaCl, 9.2 mM Na HEPES, 1.7 mM Fructose, 0.5 mM EGTA, 0.029 mM Phenol red, 10 U/ml heparin, pH 7.5) at a flow rate of 30 ml/min for 6 minutes. To digest the liver, DSC solution (6.7 mM KCl, 143 mM NaCl, 9.2 mM Na HEPES, 5 mM CaCl2-2H2O, 1.7 mM Fructose, 0.029 mM Phenol red, 0.2% BSA, 100 U/ml collagenase Type I, 160 BAEE/ml trypsin inhibitor, pH 7.5) was perfused through the liver at a flow rate of 30 ml/min for 6 minutes at a temperature of 37° C. After digestion, cells were dispersed in a solution of DMEM-(DMEM containing 2 mM GlutMax-1, 0.2% BSA, 5% FBS, 12 nM insulin, 1.2 μM hydrocortisone) to stop the digestion process. The crude cell suspension was filtered through three layers of stainless steel mesh with pore sizes of 250, 106, and 75 μm respectively. Filtered cells were centrifuged at 50×g for two minutes and the supernatant discarded. The resulting cell pellet was resuspended in DMEM and centrifuged again. […]

Compound	melting point [°C]	Glucose, Percent Change from Pre-treatment (obese female Zucker rats; 30 mg/kg/day) [%]	% wt. gain (obese female Zucker rats; 30 mg/kg/day) [%]	HDL-C/non HDL-C (obese female Zucker rats; 30 mg/kg/day)	BHA, Percent Change from Pre-treatment (obese female Zucker rats; 30 mg/kg/day) [%]	HDL-C, Percent Change from Pre-treatment (obese female Zucker rats; 30 mg/kg/day) [%]	Insulin, Percent Change from Pre-treatment (obese female Zucker rats; 30 mg/kg/day) [%]	NEFA, Percent Change from Pre-treatment (obese female Zucker rats; 30 mg/kg/day) [%]	Non HDL-C, Percent Change from Pre-treatment (obese female Zucker rats; 30 mg/kg/day) [%]	TC, Percent Change from Pre-treatment (obese female Zucker rats; 30 mg/kg/day) [%]	TG, Percent Change from Pre-treatment (obese female Zucker rats; 30 mg/kg/day) [%]	Glucose, Percent Change from Pre-treatment (obese female Zucker rats; 100 mg/kg/day) [%]	% wt. gain (obese female Zucker rats; 100 mg/kg/day) [%]	HDL-C/non HDL-C (obese female Zucker rats; 100 mg/kg/day)	BHA, Percent Change from Pre-treatment (obese female Zucker rats; 100 mg/kg/day) [%]	HDL-C, Percent Change from Pre-treatment (obese female Zucker rats; 100 mg/kg/day) [%]	Insulin, Percent Change from Pre-treatment (obese female Zucker rats; 100 mg/kg/day) [%]	NEFA, Percent Change from Pre-treatment (obese female Zucker rats; 100 mg/kg/day) [%]	Non HDL-C, Percent Change from Pre-treatment (obese female Zucker rats; 100 mg/kg/day) [%]	TC, Percent Change from Pre-treatment (obese female Zucker rats; 100 mg/kg/day) [%]	also measured
CC(C)(CO)[C@@H](O)C(=O)NCCNC(=O)[C@H](O)C(C)(C)CO [Compound V3, (R,R)-N-[2-(2,4-Dihydroxy-3,3-dimethylbutyrylamino)-ethyl]-2,4-dihydroxy-3,3-dimethylbutyramide]	124.8 to 124.9	3	9	2	69	7	11	−16	16	9	14										
CC(C)(CO)C(O)C(=O)NCCOCCNC(=O)C(O)C(C)(C)CO (centres unmarked) [U, N-{2-[2-(2,4-Dihydroxy-3,3-dimethylbutyrylamino)-ethoxy]-ethyl}-2,4-dihydroxy-3,3-dimethylbutyramide]												−3	9	2	254	14	6	13	−2	8	TG, Percent Change from Pre-treatment (obese female Zucker rats; 100 mg/kg/day): 1%
CC(C)(CO)[C@H](O)C(=O)NCCNC(=O)[C@@H](O)C(C)(C)CO [Compound V4]	124.8 to 124.9	2	12	1	79	5	4	−28	75	23	22										
Cc1cc(OCCCCC(C)(C)CO)cc(C)c1NC(=O)C(O)C(C)(C)CO (centres unmarked) [Compound AC, 2,4-dihydroxy-N-[4-(6-hydroxy-5,5-dimethyl-hexyloxy)-2,6-dimethyl-phenyl]-3,3-dimethyl-butyramide]																					IC50 (primary rat hepatocytes): 2100 nM
CC(C)(CO)C(O)C(=O)NCCNC(=O)C(O)C(C)(C)CO (racemic) [Compound V2, N-[2-(2,4-Dihydroxy-3,3-dimethylbutyrylamino)-ethyl]-2,4-dihydroxy-3,3-dimethylbutyramide]		−8	10	2	58	−20	−53	−23	23	−13	36										
CCCCCOc1cc(C)c(NC(=O)C(O)C(C)(C)CO)c(C)c1 (centres unmarked) [AA, N-(2,6-dimethyl-4-pentyloxy-phenyl)-2,4-dihydroxy-3,3-dimethyl-butyramide]	101 to 102.5											10	11	3	51	87	−10	−30	−17	41	TG, Percent Change from Pre-treatment (obese female Zucker rats; 100 mg/kg/day): −38%
CC(C)(CO)[C@H](O)C(=O)NCCNC(=O)[C@H](O)C(C)(C)CO [Compound V1, (R,S)-N-[2-(2,4-Dihydroxy-3,3-dimethylbutyrylamino)-ethyl]-2,4-dihydroxy-3,3-dimethyl-butyramide]												−3	11	1	63	77	−20	7	6	34	TG, Percent Change from Pre-treatment (obese female Zucker rats; 100 mg/kg/day): 22%
CC(C)(CO)C(O)C(=O)NCc1cccnc1 (centres unmarked) [AB, 2,4-Dihydroxy-3,3-dimethyl-N-pyridin-3ylmethyl-butyramide]	120 to 121.5																				
